Each block holds one compound with its values, some of them ahead of it.
What was measured:
[1] = method code SF, from Zheng, Y.; Wu, F.; Li, Y. (2001). Determination of ionization constant and partition coefficient of monoxidine. Journal of Shenyang Pharmaceutical University, 18(1)37-39.
[2] = not given; remark: listed apart in the source
[3] = method code SF, from DOI: 10.1016/0006-2952(79)90429-5, PMID: 444298
[4] = not given; remark: listed apart in the source
[5] = method code SF, from PMID: 23342302; conditions: pH 7.4
[6] = not given; remark: listed apart in the source
[7] = method code SF-CR, from DOI: 10.1042/bj1780443, PMID: 109087; conditions: pH 7.4
[8] = method code SF-GLC, from Hermens, J., & De Bruijn, J. (1987). A QSAR study for fish toxicity data of organophosphorus compounds. QSAR in Drug Design and Toxicology, 10, 343-345.
[9] = method code SF-AS, from DOI: 10.1021/jm00069a002, PMID: 8355246; conditions: pH 7.4
[10] = method code SF-AS, from DOI: 10.1002/ps.2780370107; conditions: pH 0.0
[11] = method code SF-HPLC, from DOI: 10.1021/jm010289a, PMID: 11754587; conditions: pH 7.0
[12] = method code SF-AS, from DOI: 10.1002/chin.198419165, PMID: 6653771; conditions: pH 2.5
[13] = not given; remark: listed apart in the source
[14] = method code SF-AS, from DOI: 10.1002/qsar.19870060104
[15] = not given; remark: listed apart in the source
[16] = method code SF-HPLC, from PMID: 1293941
[17] = method code SF-HPLC, from DOI: 10.1124/dmd.30.12.1497, PMID: 12433825; conditions: pH 7.4
[18] = not given; remark: listed apart in the source
[19] = method code SF-EPR, from DOI: 10.1016/0003-9861(82)90097-2, PMID: 6284047; conditions: pH 7.4
[20] = method code SF-AS, from DOI: 10.1111/j.2042-7158.1984.tb04385.x, PMID: 6145771; conditions: pH 9.2
[21] = not given; remark: listed apart in the source
[22] = method code SF, from DOI: 10.1002/jps.2600620102, PMID: 4566530
[23] = method code SF, from DOI: 10.1021/jm00010a006, PMID: 7752187
[24] = method code SF-GLC, from DOI: 10.1016/0147-6513(82)90020-3, PMID: 7106034
[25] = method code SF-GLC, from DOI: 10.1007/bf00212402, PMID: 7663085
[26] = method code SF-HPLC, from DOI: 10.1016/j.bmc.2011.10.084, PMID: 22130421; conditions: pH 7.4
[27] = method code SF, from DOI: 10.1016/0021-9673(91)85016-9; conditions: pH 7.0
[28] = method code SF-CR+AS, from Korenman, I.; Lineva, S.; Gezikova, N. (1978). Extraction of naphthol-sulfonic acids from aqueous solution. Zh. Prikl. Khim., 51(4)869-871.
[29] = method code SF-AS, from Korenman, Y.; Pazynin, T. (1972). Distribution of nitrosonaphthols between organic solvents and water. J. anal. chem. USSR, 27(4)723-725.; conditions: pH 2.0
[30] = method code SF-AS, from DOI: 10.1007/bf01067967, PMID: 3820093; conditions: pH 7.5
[31] = not given; remark: listed apart in the source
[32] = method code SF-AS, from DOI: 10.1021/es00082a014; conditions: pH 7.0
[33] = not given; remark: listed apart in the source
[34] = method code SF-HPLC, from DOI: 10.1248/bpb.16.154, PMID: 8364451
[35] = not given; remark: listed apart in the source
[36] = method code G-HPLC, from DOI: 10.6028/nbs.ir.81-2406
[37] = method code SF, from DOI: 10.1248/cpb.33.282, PMID: 4006019; conditions: pH 1.0
[38] = method code SF-CR+AS, from Korenman, I.; Tishchenko, M.; Kombarova, A. (1977). Distribution of dihydroxynaphthalenes between higher alcohols and water. Zh. Prikl. Khim., 50(4)899-901.; conditions: pH 2.0
[39] = method code SF, from DOI: 10.1021/jm00217a007, PMID: 17751; conditions: pH 9.0
[40] = method code SF, from DOI: 10.1515/bc.2002.085, PMID: 12108546
[41] = not given; remark: listed apart in the source
[42] = not given; remark: listed apart in the source
[43] = method code SF-AS, from DOI: 10.1016/0304-4165(70)90354-5, PMID: 5474547; conditions: pH 7.4
[44] = not given; remark: listed apart in the source
[45] = method code SF-RC, from DOI: 10.1016/0006-2952(75)90159-8, PMID: 1168477
[46] = not given; remark: listed apart in the source
[47] = not given; remark: listed apart in the source
[48] = from Bundgaard, H.; Hansen, A.; Larsen, C. (1979). Prodrugs as drug delivery systems. VII. Rapid cyclization of methyldiethylthiomalonurate to thiobarbital in aqueous solution. Archiv der Pharmazie - …; conditions: pH 3.5
[49] = method code …, from Wang, X.; Song, H. (1996). Determination of octanol-water partition coefficients of organic pollutants by using the dynamic coupled-column liquid chromatographic technique. Transactions of Tianjin …
[50] = not given; remark: listed apart in the source

Structure (SMILES): CCOC(=O)c1ccccc1O
logP: 2.23

Structure (SMILES): CCCCCCCCO
logP [2]: 3

Structure (SMILES): CC(Oc1ccc(Cl)cc1Cl)C(=O)O (stereo unspecified)
logP [4]: 3.43

Structure (SMILES): Cc1cc(=O)oc2cc(O)ccc12
logD [7]: 1.9

Structure (SMILES): COP(=S)(OC)Oc1ccc(Cl)cc1C#N
logP [8]: 3.41

Structure (SMILES): CCOP(=O)(O)Cc1ccc(Cl)cc1
logD [10]: 1.6

Structure (SMILES): N#CCNc1ccccc1C(=O)O
logD [12]: 1.75

Structure (SMILES): O=C(O)/C=C/C(=O)c1ccccc1
logP [13]: 1.53

Structure (SMILES): CCNc1nc(Cl)nc(NC(C)(C)C#N)n1
logP [15]: 2.18

Structure (SMILES): CCOC(=O)c1ccc(N)cc1
logP [16]: 1.87

Structure (SMILES): CCOc1ccccc1C(N)=O
logD [17]: 1.34

Structure (SMILES): C1COCCOCCOCCO1
logP [18]: -0.04

Structure (SMILES): CCC1(C)OCC(C)(C)N1O (stereo unspecified)
logD [19]: 0.57

Structure (SMILES): CCCCOCCOCCSC#N
logP [24]: 1.68

Structure (SMILES): ClC1=C(Cl)[C@]2(Cl)C3C(Cl)C(Cl)C(Cl)C3[C@@]1(Cl)C2(Cl)Cl (stereo partly specified)
logP [25]: 6.22

Structure (SMILES): O=S(=O)(O)c1ccc(O)c2ccccc12
logP [28]: -0.44

Structure (SMILES): O=Nc1ccc2ccccc2c1O
logD [29]: 2.57

Structure (SMILES): CCCc1ccc(N)cc1
logD [30]: 2.4

Structure (SMILES): CCOP(=S)(OCC)Oc1nc(Cl)c(Cl)cc1Cl
logP [31]: 4.77

Structure (SMILES): Cc1cc(C)c(N)cc1C
logD [32]: 2.29

Structure (SMILES): NC(N)=Nc1nc(CSCCC(N)=NS(N)(=O)=O)cs1
logP [33]: -0.56

Structure (SMILES): O=C(O)CNC(=O)c1ccccc1O
logP [34]: 0.95

Structure (SMILES): CCCCCC(=O)N(C)CC(=O)O
logD [37]: 1.14

Structure (SMILES): CCOC(=O)c1ccc(O)cc1
logP [41]: 2.25

Structure (SMILES): CCCOc1ccc(O)cc1
logP [42]: 2.31

Structure (SMILES): CCC(CC)(C(=O)NC(N)=S)C(=O)OC
logD [48]: 1.82

Structure (SMILES): ClC1(Cl)C2(Cl)C3(Cl)C4(Cl)C(Cl)(Cl)C5(Cl)C3(Cl)C1(Cl)C5(Cl)C24Cl (stereo unspecified)
logP [49]: 6.69

Structure (SMILES): CCCCc1ccncc1
logP [50]: 3.13

Other lines, results leading:

logP [1]: 1.08
Structure (SMILES): COc1nc(C)nc(Cl)c1NC1=NCCN1

logP [3]: -1.02
Structure (SMILES): O=NN(CCCl)C(=O)N[C@@H]1O[C@H](CO)[C@@H](O)[C@H](O)[C@H]1O

logD [5]: -0.87
Structure (SMILES): Cc1c(COC(CO)CF)[nH]c(=O)[nH]c1=O (stereo unspecified)

logP [6]: 3.06
Structure (SMILES): CC(C)Nc1nc(Cl)nc(NC2CC2)n1

logD [9]: 0.05
Structure (SMILES): Cc1c(O)c(=O)ccn1C(C)C

logD [11]: 0.63
Structure (SMILES): CN1C(=O)C(=O)c2ccccc21

logP [14]: 1.44
Structure (SMILES): O=c1ccoc2cc(O)ccc12

logD [20]: 0.32
Structure (SMILES): CNC(=S)NCCSCc1cncn1C

logP [21]: 0.88
Structure (SMILES): NC(=O)c1cn(Cc2c(F)cccc2F)nn1

logP [22]: 3.25
Structure (SMILES): Cc1cc(C)c2oc(=O)sc2c1

logP [23]: 0.74
Structure (SMILES): c1ccc(Cn2cnnc2)cc1

logD [26]: -0.38
Structure (SMILES): Cc1ncc([N+](=O)[O-])n1Cc1cn(CCF)nn1

logD [27]: -2.85
Structure (SMILES): O=c1ccn2c(n1)OC1C(O)C(CO)OC12 (stereo unspecified)

logP [35]: 1.85
Structure (SMILES): COc1cc(O)cc(C(C)=O)c1

logP [36]: 2.67
Structure (SMILES): Cc1ccc(C)c(O)c1C

logD [38]: 1.94
Structure (SMILES): Oc1ccc2cccc(O)c2c1

logD [39]: 0.51
Structure (SMILES): CNC(=S)NCCCCc1c[nH]cn1

logP [40]: -0.3
Structure (SMILES): CCCOC(=O)C1(C)CCC=[N+]1[O-] (stereo unspecified)

logD [43]: 2.53
Structure (SMILES): Cc1cc2ccccc2[nH]1

logP [44]: 4.8
Structure (SMILES): COc1c(Cl)c(Cl)c(Cl)c(OC)c1OC

logP [45]: 1.14
Structure (SMILES): C=CCN(C(C)=O)C(C)C

logP [46]: 4.34
Structure (SMILES): Clc1cc(Cl)cc(C2(CC(Cl)(Cl)Cl)CO2)c1 (stereo unspecified)

logP [47]: 2.52
Structure (SMILES): CCCCCC(CCO)C1N=N1 (stereo unspecified)

From the SangsterLogP compilation
